What was measured:
IGF1R [1] = molecular target: T1, IGF1R (Homo sapiens, UniProt P08069); assay: Biochemical assay for inhibitors of IGF-1R kinase activity (trans-phosphorylation, 33P-ATP, Dowex); design: amino acid residues 960-1367 of precursor protein; made in house; host or cells: H5 insect cells (baculovirus; virus produced in Sf21 cells); conditions: read-out: IGF1R IC50 (μM) Biochemical assay
Protocol: Human cDNA was used as template for amplification by polymerase chain reaction (PCR) of the predicted cytoplasmic portion of IGF-1R (amino acid residues 960-1367 of precursor protein; see NCBI Entrez Protein Accession #P08069) which includes the entire kinase domain. PCR was conducted using the forward primer sequence 5′-[…]-3′ (SEQ ID NO:1) and the reverse primer sequence 5′-[…]-3′ (SEQ ID NO:2). In order to facilitate subsequent cloning steps, both primers comprise a BamHI restriction endonuclease site sequence. This PCR product was cloned in frame using BamHI sticky ends into a transfer vector for the baculovirus expression system, pVL1392 (Pharmingen), previously modified by insertion into the pVL1392 multiple cloning site of sequences encoding Glutathione S-transferase (GST) fusion protein, PreScission protease cleavage site and partial MCS cassette derived from the pGex-6P plasmid (Amersham BioSciences). Insertion of the IGF-1R PCR product described above into the pGex-6P derived BamHI site of the modified pVL1392 vector results in an open reading frame corresponding to the pGEX-6P GST protein and PreScission peptide fused with the human IGF-1R cytoplasmic domain. In order to obtain fusion protein, Sf21 insect cells (Invitrogen) are cotransfected with 2 microg of purified plasmid and 1 microg of virus DNA (BaculoGold™ Transfection Kit, Pharmingen), as described in the Baculovirus Instruction manual (Pharmingen). A first amplification of the virus is performed using 600 microL of cotransfected virus on 6×10^6 Sf21 in a monolayer culture, in 12 mL of medium (TNM-FH Grace's medium—Pharmingen). After 3 days the medium is collected, centrifuged and transferred to a sterile tube. A second amplification is prepared with the same method using 2 mL on 3×10^7 cells, diluted in 40 mL of medium. For the third amplification of virus, 1 mL of supernatant from the second round are used per 3×10^7 cells diluted in 40 mL of medium. […]
The inhibitory activity of putative kinase inhibitors and the potency of selected compounds were determined using a trans-phosphorylation assay. […]
Target sequence in this assay (P08069 960-1367): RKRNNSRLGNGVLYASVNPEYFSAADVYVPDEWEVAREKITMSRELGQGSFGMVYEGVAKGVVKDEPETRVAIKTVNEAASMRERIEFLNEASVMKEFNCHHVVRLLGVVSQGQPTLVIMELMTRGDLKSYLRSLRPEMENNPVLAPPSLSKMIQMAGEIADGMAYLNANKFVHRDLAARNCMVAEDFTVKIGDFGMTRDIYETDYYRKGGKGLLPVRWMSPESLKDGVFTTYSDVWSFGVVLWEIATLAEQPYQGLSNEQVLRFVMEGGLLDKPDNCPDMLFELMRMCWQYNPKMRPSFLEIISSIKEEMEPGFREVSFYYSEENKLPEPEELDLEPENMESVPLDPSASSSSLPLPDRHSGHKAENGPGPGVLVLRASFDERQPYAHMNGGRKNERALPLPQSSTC

[2] = tested on: IGF1-induced S6 phosphorylation; assay: Growth factor induced S6 ribosomal protein phosphorylation in primary human fibroblasts; assay type: cell-based; conditions: normal human dermal fibroblasts (NHDF), 10 nM IGF-1; read-out: Inhibition of IGF1-induced S6 phosphorylation IC50
Protocol: Growth Factor Induced […] Ribosomal Protein Phosphorylation in Primary Human Fibroblasts.
Phosphorylation of S6 ribosomal protein in response to growth factor stimulation of normal human dermal fibroblasts (NHDF) was used to assess compound potency in inhibiting IGF-1 induced signal transduction in cells, and selectivity towards EGF and PDGF stimulus. NHDF cells obtained from PromoCell (Heidelberg, Germany), were maintained at 37° C. in a humidified atmosphere with 5% CO2 in complete Fibroblast Growth Medium (PromoCell). For assay, NHDF were seeded in 384-well tissue culture plates (clear- and flat-bottomed black plates; Matrix Technologies Inc., Hudson, N.H., USA) at a density of 5000 cells/well in serum-free medium containing 0.1% bovine serum albumin (BSA) and incubated for 5 days. Starved cells were treated for 1 hour with desired doses of compounds and then stimulated for a further 2 hours with either 10 nM IGF-1 (Invitrogen Corp., CA, USA), 10 nM EGF (Gibco BRL, USA) or 1 nM PDGF-B/B (Roche Diagnostics GmbH, Germany). Cells were then fixed in PBS/3.7% paraformaldehyde for 20 minutes at room temperature, washed ×2 with PBS, and permeabilized with PBS/0.3% Triton X-100 for 15 minutes. Wells were then saturated with PBS/1% non-fat dry milk (Bio-Rad Laboratories, Hercules, Calif., USA) for 1 hour, and then probed for 1 hour at 37° C. with anti-phospho-S6 (Ser 235/236) antibody (Cell Signaling Technology, Beverly, Mass., USA, cat. #2211) at 1/200 dilution in PBS/1% milk/0.3% Tween 20. […] Fluorescence images in the DAPI and Cy5™ channels were automatically acquired, stored and analysed using a Cellomics ArrayScan™ IV instrument (Cellomics, Pittsburgh, USA); the Cellomics Cytotoxicity Algorithm was used to quantify cytoplasmic fluorescence associated with phospho-S6 (Cy5™ signal parameter: “Mean Lyso Mass-pH”) for each cell in 10 fields/well, and eventually expressed as a mean population value. […]

IGF1R [3] = molecular target: T1, IGF1R; assay: Western blot analysis of receptor phosphorylation following stimulation with IGF-1 in MCF-7 human breast cancer cells; assay type: cell-based; design: endogenous in cells; host or cells: MCF-7 (ATCC#HTB-22); conditions: starved MCF-7 cells, increasing concentrations of compound, then 10 nM IGF1; pIGF1R band, FIG. 1
Protocol: [formula] where νb is the baseline velocity, ν is the observed reaction velocity, ν0 is the velocity in the absence of inhibitors, and [I] is the inhibitor concentration. Cell-Based Assays for Inhibitors of IGF-1R Kinase Activity Western Blot Analysis of Receptor Phosphorylation Following Stimulation with IGF-1 in MCF-7 Human Breast Cancer Cells
MCF-7 cells (ATCC#HTB-22) were seeded in 12-well tissue culture plates at 2×10^5 cells/well in E-MEM medium (MEM+Earle's BSS+2 mM glutamine+0.1 mM non-essential amino acids)+10% FCS, and incubated overnight at 37° C., 5% CO2, 100% relative humidity. Cells were then starved by replacing E-MEM+10% FCS with E-MEM+0.1% BSA, and incubating overnight. After this incubation, wells were treated with desired concentrations of compound for 1 hour at 37° C., and were then stimulated with 10 nM recombinant human IGF-1 (Invitrogen, Carlsbad, Calif., USA) for 10 minutes at 37° C. Cells were then washed with PBS and lysed in 100 microL/well cell lysis buffer (M-PER Mammalian Protein Extraction Reagent [Product #78501, Pierce, Rockford, Ill., USA]+10 mM EDTA+Protease inhibitor cocktail [Sigma-Aldrich product #P8340]+phosphatase inhibitor cocktail [Sigma-Aldrich products #P2850+#P5726]). Cell lysates were cleared by centrifugation at 10,000×g for 5 minutes, and 10 microg/lane of cleared lysate protein were run on NuPAGE gels (NuPAGE 4-12% 10-lane Bis-Tris gels, Invitrogen) with MOPS running buffer, then transferred onto Hybond-ECL nitrocellulose filters (Amersham Biosciences, Little Chalfont, Buckinghamshire, UK) using Mini PROTEAN II chambers (Bio-Rad Laboratories, Hercules, Calif., USA). […]
Target sequence in this assay (P08069 31-1367): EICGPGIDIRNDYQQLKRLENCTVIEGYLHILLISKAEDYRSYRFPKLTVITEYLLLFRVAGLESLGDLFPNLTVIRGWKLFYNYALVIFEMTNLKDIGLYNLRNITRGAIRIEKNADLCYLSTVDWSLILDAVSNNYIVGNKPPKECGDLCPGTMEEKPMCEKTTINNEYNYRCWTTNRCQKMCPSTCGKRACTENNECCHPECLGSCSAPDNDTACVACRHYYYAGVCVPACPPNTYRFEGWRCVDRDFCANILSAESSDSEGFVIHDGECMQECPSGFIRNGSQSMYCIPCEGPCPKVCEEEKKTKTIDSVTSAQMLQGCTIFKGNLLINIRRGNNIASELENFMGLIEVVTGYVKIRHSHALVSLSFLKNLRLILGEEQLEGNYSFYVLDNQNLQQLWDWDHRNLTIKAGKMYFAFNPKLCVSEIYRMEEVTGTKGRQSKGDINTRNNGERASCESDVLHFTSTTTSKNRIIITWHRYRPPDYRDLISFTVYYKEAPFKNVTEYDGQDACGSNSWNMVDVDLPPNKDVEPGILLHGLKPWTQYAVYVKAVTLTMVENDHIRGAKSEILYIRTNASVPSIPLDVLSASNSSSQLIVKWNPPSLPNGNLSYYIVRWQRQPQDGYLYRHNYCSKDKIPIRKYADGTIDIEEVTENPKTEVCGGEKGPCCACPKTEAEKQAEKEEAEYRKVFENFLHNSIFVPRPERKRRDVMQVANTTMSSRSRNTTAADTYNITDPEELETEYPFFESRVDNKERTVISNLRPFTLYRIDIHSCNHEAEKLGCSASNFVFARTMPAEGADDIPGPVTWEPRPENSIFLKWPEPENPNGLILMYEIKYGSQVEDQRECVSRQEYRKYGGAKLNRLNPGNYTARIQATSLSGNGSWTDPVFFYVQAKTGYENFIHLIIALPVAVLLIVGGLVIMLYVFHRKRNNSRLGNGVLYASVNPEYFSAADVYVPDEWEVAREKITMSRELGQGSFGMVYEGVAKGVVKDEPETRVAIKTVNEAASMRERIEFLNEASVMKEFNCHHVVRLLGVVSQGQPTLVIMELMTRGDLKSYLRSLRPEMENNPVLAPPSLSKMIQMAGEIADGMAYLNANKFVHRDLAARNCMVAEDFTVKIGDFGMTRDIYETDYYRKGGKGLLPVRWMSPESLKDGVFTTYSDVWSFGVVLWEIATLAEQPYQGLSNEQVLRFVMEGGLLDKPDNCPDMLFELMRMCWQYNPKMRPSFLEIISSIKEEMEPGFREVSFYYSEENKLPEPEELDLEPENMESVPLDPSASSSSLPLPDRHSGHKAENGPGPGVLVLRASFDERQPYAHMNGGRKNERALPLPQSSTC

IC50 (IGF1R [1]) [µM] | Structure (SMILES) | IC50 [2] [nM] | inhibition of IGF1R auto-phosphorylation (IGF1R [3])
0.049 | CN1CCN(c2ccc(C(=O)Nc3n[nH]c4c3CN(S(=O)(=O)c3cc(F)cc(F)c3)CC4)c(NC(=O)c3ccc[nH]3)c2)CC1 [Compound 28, 1H-Pyrrole-2-carboxylic acid [2-[5-(3,5-difluoro-benzenesulfonyl)-4,5,6,7-tetrahydro-1H-pyrazolo[4,3-c]pyridin-3-ylcarbamoyl]-5-(4-methyl-piperazin-1-yl)-phenyl]-amide] | 80 | inhibition of IGF1-induced IGF1R auto-phosphorylation
0.055 | CN1CCN(c2ccc(C(=O)Nc3n[nH]c4c3CN(S(=O)(=O)c3cc(F)cc(F)c3)CC4)c(NCc3ccco3)c2)CC1 [Compound 52, N-[5-(3,5-Difluoro-benzenesulfonyl)-4,5,6,7-tetrahydro-1H-pyrazolo[4,3-c]pyridin-3-yl]-2-[(furan-2-ylmethyl)-amino]-4-(4-methyl-piperazin-1-yl)-benzamide] | 640 | inhibition of IGF1-induced IGF1R auto-phosphorylation
0.14 | CN1CCN(c2ccc(C(=O)Nc3n[nH]c4c3CN(S(=O)(=O)c3cc(F)cc(F)c3)CC4(C)C)c(NC(=O)C3CCOCC3)c2)CC1 [Compound 293, Tetrahydro-pyran-4-carboxylic acid [2-[5-(3,5-difluoro-benzenesulfonyl)-7,7-dimethyl-4,5,6,7-tetrahydro-1H-pyrazolo[4,3-c]pyridin-3-ylcarbamoyl]-5-(4-methyl-piperazin-1-yl)-phenyl]-amide] | 280 | inhibition of IGF1-induced IGF1R auto-phosphorylation

Reference: patent publication US7947686B2, “Substituted pyrazolo[4,3-c]pyridine derivatives active as kinase inhibitors” (Nerviano Medical Sciences S.r.l., priority 2005, dated 2011)
